# Measured values as given in article PMC7400135, “3-(5-Nitrofuran-2-yl)prop-2-en-1-one Derivatives, with Potent Antituberculosis Activity, Inhibit A Novel Therapeutic Target, Arylamine N-acetyltransferase, in Mycobacteria” (Antibiotics, 2020).
# Test system: multidrug-resistant M. tuberculosis Peru isolate
# Assay: microbe, parasite or virus in culture
# Type: cell-based
# Details: Mycobacterium tuberculosis, 336 h, read-out: MIC MDR-TB
row,Structure (SMILES),MIC [µg/mL]
1,"CN(Cc1cnc2nc(N)nc(N)c2n1)c1ccc(C(=O)N[C@@H](CCC(=O)O)C(=O)O)cc1 [Methotrexate, reference compound]",250
2,CC[C@@H](CO)NCCN[C@@H](CC)CO [Ethambutol],8
3,O=C(/C=C/c1ccc([N+](=O)[O-])o1)c1ccc(N2CCOCC2)cc1 [Compound 1],0.976
4,CO[C@H]1/C=C/O[C@@]2(C)Oc3c(C)c(O)c4c(O)c(c(/C=N/N5CCN(C)CC5)c(O)c4c3C2=O)NC(=O)/C(C)=C\C=C\[C@H](C)[C@H](O)[C@@H](C)[C@@H](O)[C@@H](C)[C@H](OC(C)=O)[C@@H]1C [Rifampicin],> 500
5,O=C(/C=C/c1ccc([N+](=O)[O-])o1)c1ccc(N2CCCCC2)cc1 [Compound 2],1.95
6,CCN(CC)c1ccc(C(=O)/C=C/c2ccc([N+](=O)[O-])o2)cc1 [Compound 3],0.488
7,O=[N+]([O-])c1cn2c(n1)OC[C@@H](OCc1ccc(OC(F)(F)F)cc1)C2 [Pretomanid],0.488
8,"NNC(=O)c1ccncc1 [Isoniazid, reference compound]",> 500
